Laboratory results from patent US20230286969A1, “AROMATIC SPIRO RING AMIDE DERIVATIVES FOR THE TREATMENT AND PROPHYLAXIS OF HEPATITIS B VIRUS INFECTION” (Hoffmann-La Roche Inc., priority 2020, published 2023).
Read-outs that look alike come from different tables or passages of the source.

Columns and labels:
Format in all cases: cell-based
HBeAg = test: PHH HBV natural infection assay, HBeAg (alphalisa)
Procedure: (§1) Detailed procedures regarding primary human hepatocyte (PHH) HBV natural infection assay are described as below. One tube of frozen PHH (10 million cells) is thawed in 37° C. water bath and then transferred to 20 mL of PHH thawing medium (Sigma, InVitroGRO HT Medium, Cat. S03319) with gently mixing. The cells were then centrifuged at […] for 5 min, the supernatant was discarded and the tube was refilled with 25 mL of PHH plating medium (Sigma, InVitroGRO CP Medium, Cat. S03317). The tube was shaken very gently to re-suspend all cells, and then 50 μl of cells were transferred to each well 384-well collagen I coated plate with appropriate liquid handling equipment, e.g. Integra VIAFLO384 or Agilent Bravo. The cells were then cultured for 24 hours in a cell incubator. For HBV infection, after PHH attachment on the culture plate, the plating medium was removed and replenished with PHH culture medium containing HBV virus. The PHH culture medium was prepared with Dulbecco's Modified Eagle Medium (DMEM)/F12 (1:1 in volume ratio) containing 10% fetal bovine serum (Gibco, Cat. 10099141), 5 ng/mL human epidermal growth factor (Gibco, Cat.PHG0311L), 20 ng/mL dexamethasone (Sigma, Cat.D4902-100 mg), 250 ng/mL human recombinant insulin (Gibco, Cat.41400045) and 100 U/mL penicillin. HBV virus at 200 genome equivalent (GE) per cell with 4% PEG8000 (Sigma, Cat.P1458) containing culture medium were added to the PHH culture medium for infection. The cells were then cultured for 24 hours in cell incubator. Then the cell culture supernatant was removed. The HBV-infected PHH were cultured with sandwich culture method with PHH culture medium containing 1% DMSO and 0.25 mg/mL matrix gel for 72 hours. The supernatant was then refreshed with PHH culture medium containing different concentrations of testing compounds for two times with 72-hour interval. At the end of treatment, the supernatant was collected for viral markers measurements, including HBsAg, HBeAg, HBV DNA and cytotoxicity. HBsAg and HBeAg were detected using alphalisa method using their specific antibodies. For HBV DNA detection, HBV DNA Quantitative Fluorescence Diagnostic Kit (Sansure Biotech Inc.) was used following the manufacture's protocol. Cytotoxicity was determined using Cell Counting Kit-8 (CCK8, Dojindo Molecular Technologies, Inc.).
(§2) The compounds of the present invention were tested for their capacity to inhibit HBsAg and HBeAg as described herein.

[1] = PHH natural infection assay, cytotoxicity (Cell Counting Kit-8); conditions: human, HBV-infected primary human hepatocytes, CCK8, end of treatment
Procedure: as §1

HBsAg = test: PHH HBV natural infection assay, HBsAg (alphalisa)
Procedure: as §1, §2

[2] = read-out: HbeAg IC50, HBV-infected primary human hepatocytes, supernatant, compound medium refreshed two times with 72-hour interval
[3] = read-out: HBsAg IC50, HBV-infected primary human hepatocytes, supernatant, compound medium refreshed two times with 72-hour interval
[4] = Hepatitis B virus, Hepatocyte, 72 h, read-out: HbeAg IC50, HBV-infected primary human hepatocytes, supernatant, compound medium refreshed two times with 72-hour interval
[5] = Hepatitis B virus, Hepatocyte, 72 h, read-out: HBsAg IC50, HBV-infected primary human hepatocytes, supernatant, compound medium refreshed two times with 72-hour interval

Structure (SMILES)	IC50 (HBeAg; [2]) [µM]	CC50 at 144 h [1] [µM]	IC50 (HBsAg; [3]) [µM]	IC50 (HBeAg; [4]) [µM]	IC50 (HBsAg; [5]) [µM]
[H][C@]1(NC(=O)c2ccc(S(C)(=O)=O)o2)C[C@@]2(C1)C[C@]([H])(c1nc3cc(Cl)ccc3o1)C2 (single isomer, unassigned) [Example 15-a, (Sa)—N-[6-(5-chloro-1,3-benzoxazol-2-yl)spiro[3.3]heptan-2-yl]-5-methylsulfonyl-furan-2-carboxamide]	3.94	84	5.19	–	–
[H][C@]1(NC(=O)c2ccc(S(C)(=O)=O)o2)C[C@]2(C1)C[C@]([H])(c1nc3cc(Cl)ccc3o1)C2 (single isomer, unassigned) [Example 15-b, (Ra)—N-[6-(5-chloro-1,3-benzoxazol-2-yl)spiro[3.3]heptan-2-yl]-5-methylsulfonyl-furan-2-carboxamide]	0.694	35.8	0.896	–	–
O=C(NC1CC2(C1)CC(c1nc3cc(Cl)ccc3o1)C2)c1ccc([S+]([O-])CC2CC2)o1 (single isomer, unassigned) [Example 19-a, N-[6-(5-chloro-1,3-benzoxazol-2-yl)spiro[3.3]heptan-2-yl]-5-(cyclopropylmethylsulfinyl)furan-2-carboxamide]	0.067	> 10	0.088	–	–
NS(=O)(=O)c1ccc(C(=O)NC2CC3(C2)CC(c2nc4cc(Cl)ccc4o2)C3)o1 (single isomer, unassigned) [Example 29-a, N-[6-(5-chloro-1,3-benzoxazol-2-yl)spiro[3.3]heptan-2-yl]-5-sulfamoyl-furan-2-carboxamide]	2.28	> 100	5.12	–	–
O=C(NC1CC2(C1)CC(c1nc3cc(Cl)cnc3o1)C2)c1ccc(S(=O)(=O)C2CC2)o1 (single isomer, unassigned) [Example 49-a, N-[6-(6-chlorooxazolo[5,4-b]pyridin-2-yl)spiro[3.3]heptan-2-yl]-5-cyclopropylsulfonyl-furan-2-carboxamide]	4.25	81.1	4.17	–	–
CS(=N)(=O)c1ccc(C(=O)NC2CC3(C2)CC(c2nc4cc(Cl)ccc4o2)C3)o1 (single isomer, unassigned) [Example 52-a, N-[6-(5-chloro-1,3-benzoxazol-2-yl)spiro[3.3]heptan-2-yl]-5-(methylsulfonimidoyl)furan-2-carboxamide]	1.77	> 100	4.26	–	–
N=S(=O)(c1ccc(C(=O)NC2CC3(C2)CC(c2nc4cc(Cl)cnc4o2)C3)o1)C1CC1 (single isomer, unassigned) [Example 64-a, N-[6-(6-chlorooxazolo[5,4-b]pyridin-2-yl)spiro[3.3]heptan-2-yl]-5-(cyclopropylsulfonimidoyl)furan-2-carboxamide]	4.81	> 10	8.45	–	–
CC(C)C(=O)NS(=O)(=O)c1ccc(C(=O)N[C@H]2CC3(C2)C[C@H](c2nc4cc(Cl)ccc4o2)C3)o1 (single isomer, unassigned) [Example 70, (Sa)—N-[6-(5-chloro-1,3-benzoxazol-2-yl)spiro[3.3]heptan-2-yl]-5-(2-methylpropanoylsulfamoyl)furan-2-carboxamide, or (Ra)—N-[6-(5-chloro-1,3-benzoxazol-2-yl)spiro[3.3]heptan-2-yl]-5-(2-methylpropanoylsulfamoyl)furan-2-carboxamide]	–	> 100	–	0.376	0.361
O=C(N[C@H]1CC2(C1)C[C@H](c1nc3cc(Cl)ccc3o1)C2)c1ccc(S(=O)(=O)NC(=O)C2CC2)o1 (single isomer, unassigned) [Example 71, (Sa)—N-[6-(5-chloro-1,3-benzoxazol-2-yl)spiro[3.3]heptan-2-yl]-5-(cyclopropanecarbonylsulfamoyl)furan-2-carboxamide, or (Ra)—N-[6-(5-chloro-1,3-benzoxazol-2-yl)spiro[3.3]heptan-2-yl]-5-(cyclopropanecarbonylsulfamoyl)furan-2-carboxamide]	–	> 100	–	3.28	3.66
O=C(N[C@H]1CC2(C1)C[C@H](c1nc3cc(Cl)ccc3o1)C2)c1ccc(S(=O)(=O)NC(=O)C2CCC2)o1 (single isomer, unassigned) [Example 72, (Sa)—N-[6-(5-chloro-1,3-benzoxazol-2-yl)spiro[3.3]heptan-2-yl]-5-(cyclobutanecarbonylsulfamoyl)furan-2-carboxamide, or (Ra)—N-[6-(5-chloro-1,3-benzoxazol-2-yl)spiro[3.3]heptan-2-yl]-5-(cyclobutanecarbonylsulfamoyl)furan-2-carboxamide]	–	> 100	–	0.386	0.314
COCC(=O)NS(=O)(=O)c1ccc(C(=O)N[C@H]2CC3(C2)C[C@H](c2nc4cc(Cl)ccc4o2)C3)o1 (single isomer, unassigned) [Example 73, (Sa)—N-[6-(5-chloro-1,3-benzoxazol-2-yl)spiro[3.3]heptan-2-yl]-5-[(2-methoxyacetyl)sulfamoyl]furan-2-carboxamide, or (Ra)—N-[6-(5-chloro-1,3-benzoxazol-2-yl)spiro[3.3]heptan-2-yl]-5-[(2-methoxyacetyl)sulfamoyl]furan-2-carboxamide]	–	> 100	–	0.256	0.416
CCOC(=O)NS(=O)(=O)c1ccc(C(=O)N[C@H]2CC3(C2)C[C@H](c2nc4cc(Cl)ccc4o2)C3)o1 (single isomer, unassigned) [Example 74, (Sa)-ethyl N-[[5-[[6-(5-chloro-1,3-benzoxazol-2-yl)spiro[3.3]heptan-2-yl]carbamoyl]-2-furyl]sulfonyl]carbamate, or (Ra)-ethyl N-[[5-[[6-(5-chloro-1,3-benzoxazol-2-yl)spiro[3.3]heptan-2-yl]carbamoyl]-2-furyl]sulfonyl]carbamate]	–	> 10	–	5.92	6.67
COC(=O)CCC(=O)NS(=O)(=O)c1ccc(C(=O)N[C@H]2CC3(C2)C[C@H](c2nc4cc(Cl)ccc4o2)C3)o1 (single isomer, unassigned) [Example 75, (Sa)-methyl 4-[[5-[[6-(5-chloro-1,3-benzoxazol-2-yl)spiro[3.3]heptan-2-yl]carbamoyl]-2-furyl]sulfonylamino]-4-oxo-butanoate, or (Ra)-methyl 4-[[5-[[6-(5-chloro-1,3-benzoxazol-2-yl)spiro[3.3]heptan-2-yl]carbamoyl]-2-furyl]sulfonylamino]-4-oxo-butanoate]	–	> 10	–	1.69	2.49
O=C(N[C@H]1CC2(C1)C[C@H](c1nc3cc(Cl)ccc3o1)C2)c1ccc(S(=O)(=O)NC(=O)C23CC(C2)C3)o1 (single isomer, unassigned) [Example 76, (Sa)-5-(bicyclo[1.1.1]pentane-1-carbonylsulfamoyl)-N-[6-(5-chloro-1,3-benzoxazol-2-yl)spiro[3.3]heptan-2-yl]furan-2-carboxamide, or (Ra)-5-(bicyclo[1.1.1]pentane-1-carbonylsulfamoyl)-N-[6-(5-chloro-1,3-benzoxazol-2-yl)spiro[3.3]heptan-2-yl]furan-2-carboxamide]	–	> 10	–	1.99	2.84
COCCOCC(=O)NS(=O)(=O)c1ccc(C(=O)N[C@H]2CC3(C2)C[C@H](c2nc4cc(Cl)ccc4o2)C3)o1 (single isomer, unassigned) [Example 78, (Sa)—N-[6-(5-chloro-1,3-benzoxazol-2-yl)spiro[3.3]heptan-2-yl]-5-[[2-(2-methoxyethoxy)acetyl]sulfamoyl]furan-2-carboxamide, or (Ra)—N-[6-(5-chloro-1,3-benzoxazol-2-yl)spiro[3.3]heptan-2-yl]-5-[[2-(2-methoxyethoxy)acetyl]sulfamoyl]furan-2-carboxamide]	–	> 100	–	0.929	2.45
